Earlier results in patent publication US20050245504A1, “Treatment of diseases with combinations of alpha 7 Nicotinic Acetylcholine Receptor agonists and other compounds” (priority 2002, published 2005).
Where two headings read alike, the source gives them in different places. One block for each compound: values may come before it.

Legend:
α7 nAChR = α7 nAChR (Homo sapiens, UniProt P36544)
5HT3R = target: T1, 5HT3R (Homo sapiens, UniProt P46098)
T1 sequence (P46098 24-478): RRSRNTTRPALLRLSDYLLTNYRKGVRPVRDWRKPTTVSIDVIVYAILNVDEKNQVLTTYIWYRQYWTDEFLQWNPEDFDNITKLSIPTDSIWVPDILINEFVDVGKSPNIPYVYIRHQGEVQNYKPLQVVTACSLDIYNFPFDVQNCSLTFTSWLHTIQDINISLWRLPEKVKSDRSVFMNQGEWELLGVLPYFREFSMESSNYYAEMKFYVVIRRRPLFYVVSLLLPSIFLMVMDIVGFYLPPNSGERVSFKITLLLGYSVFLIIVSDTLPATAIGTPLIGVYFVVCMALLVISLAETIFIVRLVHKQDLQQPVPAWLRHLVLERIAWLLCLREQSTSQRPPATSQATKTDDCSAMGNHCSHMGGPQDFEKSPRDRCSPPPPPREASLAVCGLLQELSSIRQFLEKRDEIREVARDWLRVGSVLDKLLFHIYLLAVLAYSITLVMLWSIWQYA

Sequence of α7 nAChR (P36544 23-502): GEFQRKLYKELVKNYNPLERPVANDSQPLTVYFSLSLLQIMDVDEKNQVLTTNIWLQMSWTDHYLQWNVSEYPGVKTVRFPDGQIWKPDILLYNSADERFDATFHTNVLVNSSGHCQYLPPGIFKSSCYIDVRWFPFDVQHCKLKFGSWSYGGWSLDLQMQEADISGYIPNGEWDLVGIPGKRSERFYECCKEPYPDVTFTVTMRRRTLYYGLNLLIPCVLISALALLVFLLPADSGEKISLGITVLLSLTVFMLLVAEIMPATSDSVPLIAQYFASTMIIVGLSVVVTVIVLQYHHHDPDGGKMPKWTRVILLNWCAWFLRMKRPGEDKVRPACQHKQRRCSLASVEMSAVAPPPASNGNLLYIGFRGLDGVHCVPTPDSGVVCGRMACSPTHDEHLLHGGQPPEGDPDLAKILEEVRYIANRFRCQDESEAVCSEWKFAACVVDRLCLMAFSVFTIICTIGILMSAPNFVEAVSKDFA

activity at the α7 nAChR (α7 nAChR): little activity
SMILES: Cc1nccn1CC1CCc2c(c3ccccc3n2C)C1=O (stereo not shown) [Ondansetron]

SMILES: Cc1cc([C@@H]2CCCN2C)on1 [ABT-418]
cognition and attention (clinical trials of Alzheimer's disease and attention-deficit disorders): improves cognition and attention

SMILES: CN1CCCC1c1cccnc1 (stereo not shown) [nicotine]
cognition and attention (human, in vivo): increases cognition and attention

activity at the 5HT3R (5HT3R): little activity
SMILES: COc1ccc(/C=C2\CCCN=C2c2cccnc2)c(OC)c1 [GTS-21]
